Data set [1] in a line: Particle size and polydispersity index of nanoparticle compositions (Zetasizer Nano ZS). The class given is physicochemical. To be noted: Table 1A; lipid:DSPC:cholesterol:PEG-DMG 50:10:38.5:1.5 mol %. A digest of the protocol: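 Size and PDI measured by Zetasizer Nano ZS in 1×PBS (zeta potential in 15 mM PBS). Lipid nanoparticles contained test ionizable lipid:DSPC:cholesterol:PEG-DMG at 50:10:38.5:1.5 mol % with N1-methyl-pseudouridine mRNA encoding luciferase or hEPO.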

Data set [2] can be described thus: Encapsulation efficiency of RNA in nanoparticle compositions (RIBOGREEN assay). The class given is physicochemical. To be noted: Table 1A; lipid:DSPC:cholesterol:PEG-DMG 50:10:38.5:1.5 mol %. A digest of the protocol: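 Lipid nanoparticles (ionisable lipid:DSPC:cholesterol:PEG-DMG 50:10:38.5:1.5 mol %) carrying N1-methylpseudouridine luciferase or hEPO mRNA diluted to about 5 μg/mL in TE, pH 7.5, with or without 2% Triton X-100, 15 min at 37° C. RiboGreen fluorescence (ex ~480, em ~520 nm) blank-subtracted; free RNA = intact/disrupted signal.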

A further data set relates to modified luciferase. As to the kind of experiment: Luciferase expression in liver, lung, spleen and femur 6 hours after intravenous administration to mice. Format: in vivo. To be noted: 6 hours after intravenous 0.5 mpk, mice. A digest of the protocol:
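Nanoparticle formulations of the modified luciferase were given intravenously to mice (n=3) at 0.5 mpk. Bioluminescence was measured after 6 hours as total light flux. Standard MC3 formulation and PBS run as controls.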

For a further data set, the system named is IL-6, IP-10. As to the kind of experiment: Cytokine induction (IL-6, IP-10) in mice 6 hours after intravenous administration. The class given is in vivo. Also on record: unit not given here. To be noted: intravenous 0.5 mpk. From the text: The introduction of foreign material into a mammalian body induces an innate immune response that promotes cytokine production. Such immune responses to, for example, nanoparticle compositions including therapeutic and/or prophylactics, are undesirable. The induction of certain cytokines is thus measured to evaluate the […] of nanoparticle compositions. The concentrations of various cytokines in mice upon intravenous administration of nanoparticle compositions presented in Table 1A at a dosage of 0.5 mpk was measured at 6 hours. The standard MC3 formulation and a PBS control were also tested. As is evident in Table 7, IL-6 induction was highest for compositions including Compounds 1, 3, 9, 19, and 26, while IP-10 induction was highest for compositions including Compounds 3, 4, 7, 20, and 26. IL-6 induction was lowest for compositions including Compounds 4, 11, 12, and 28. IP-10 induction was lowest for compositions including Compounds 10, 11, 12, 13, 15, 17, and 18.

As to `CCCCCCCCCCCCCCN(CCO)CCCCCCCC(=O)OC(CCCCCCCC)CCCCCCCC` [Compound 2, Heptadecan-9-yl 8-((2-hydroxyethyl)(tetradecyl)amino)octanoate], in data set [1], the Size came to 83.9 nm. The EE in data set [2] amounted to 93.88%. In the data set on modified luciferase, the “Total Flux, Femur” value came to 3.86E+06; the “Total Flux, Liver” value amounted to 4.87E+09; the “Total Flux, Lung” value came out at 2.52E+07; the “Total Flux, Spleen” value is 5.77E+07. Moreover, in the data set on IL-6, IP-10, the “Cytokine induction, IL-6” value worked out at 70.95 and the “Cytokine induction, IP-10” value came to 468.86.

Molecule `CCCCCCCCC(CCCCCCCC)OC(=O)CCCCCCCN(CCO)CCCCCCCC` [Compound 4, Heptadecan-9-yl 8-((2-hydroxyethyl)(octyl)amino)octanoate] yielded a Size in data set [1] of 120.5 nm. Moreover, the EE in data set [2] is 95.10%. Further, in the data set on modified luciferase, the “Total Flux, Liver” value stood at 5.26E+09; the “Total Flux, Lung” value amounted to 6.22E+07; the “Total Flux, Spleen” value was determined as 4.09E+08. Moreover, in the data set with IL-6, IP-10, the “Cytokine induction, IL-6” value turned out to be 13.1375 and the “Cytokine induction, IP-10” value turned out to be 2253.09.

In turn, `CCCCCCCCCOC(=O)CCCCCCCN(CCCCCCCC(=O)OC(CCCCCCCC)CCCCCCCC)CCOC(C)=O` [Compound 9, Heptadecan-9-yl 8-((2-acetoxyethyl)(8-(nonyloxy)-8-oxooctyl)amino) octanoate] returned a Size in data set [1] of 68.5 nm. Further, the EE in data set [2] is on record as 75.7%. Also, in the data set on modified luciferase, the “Total Flux, Femur” value is 2.57E+04; the “Total Flux, Liver” value is recorded as 4.30E+05; the “Total Flux, Lung” value was found to be 2.56E+04; the “Total Flux, Spleen” value is given as 5.51E+04. Further, in the data set with IL-6, IP-10, the “Cytokine induction, IL-6” value was determined as 317.45 and the “Cytokine induction, IP-10” value worked out at 366.53.

`CCCCCCCCCOC(=O)CCCCCCCN(CCCCCCCC(=O)OC(CCCCCCCC)CCCCCCCC)CC(C)O` (stereo not shown) [Compound 10, Heptadecan-9-yl 8-((2-hydroxypropyl)(8-(nonyloxy)-8-oxooctyl)amino) octanoate] registered a Size in data set [1] of 102.9 nm. The molecule further registered an EE in data set [2] of 89.60%. In the data set with modified luciferase, the “Total Flux, Femur” value turned out to be 5.09E+05; the “Total Flux, Liver” value amounted to 3.22E+08; the “Total Flux, Lung” value worked out at 8.85E+05; the “Total Flux, Spleen” value is reported as 8.17E+06. In addition, in the data set with IL-6, IP-10, the “Cytokine induction, IL-6” value was determined as 88.81 and the “Cytokine induction, IP-10” value was determined as 138.16.

For `CCCCCCCCCOC(=O)CCCCCCCN(CCCCCCCC(=O)OC(CCCCCCCC)CCCCCCCC)C[C@@H](C)O` [Compound 11, Heptadecan-9-yl (R)-8-((2-hydroxypropyl)(8-(nonyloxy)-8-oxooctyl)amino)octanoate], the Size in data set [1] was 129.6 nm. In data set [2], this molecule showed an EE of 92.47%. In addition, in the data set on modified luciferase, the “Total Flux, Liver” value was 8.03E+08; the “Total Flux, Lung” value amounted to 1.35E+07; the “Total Flux, Spleen” value worked out at 1.04E+08. Moreover, in the data set on IL-6, IP-10, the “Cytokine induction, IL-6” value is on record as 0.14 and the “Cytokine induction, IP-10” value stood at 44.84.

The molecule `CCCCCCCCCOC(=O)CCCCCCCN(CCCCCCCC(=O)OC(CCCCCCCC)CCCCCCCC)C[C@H](C)O` [Compound 12, Heptadecan-9-yl (S)-8-((2-hydroxypropyl)(8-(nonyloxy)-8-oxooctyl)amino)octanoate] displayed a Size in data set [1] of 116.7 nm. In addition, in data set [2], the EE is reported as 92.44%. Also, in the data set on modified luciferase, the “Total Flux, Liver” value is given as 6.84E+08; the “Total Flux, Lung” value is recorded as 7.45E+06; the “Total Flux, Spleen” value was 6.82E+07. In the data set with IL-6, IP-10, the “Cytokine induction, IL-6” value stood at 3.88 and the “Cytokine induction, IP-10” value is 32.03.

In the case of `CCCCCCCCCOC(=O)CCCCCCCN(CCCCCCCC(=O)OC(CCCCCCCC)CCCCCCCC)CC(O)CC` (stereo not shown) [Compound 13, Heptadecan-9-yl 8-((2-hydroxybutyl)(8-(nonyloxy)-8-oxooctyl)amino) octanoate], the Size in data set [1] is reported as 79.4 nm. The same molecule yielded an EE in data set [2] of 92.28%. Also, in the data set with modified luciferase, the “Total Flux, Femur” value is recorded as 1.35E+05; the “Total Flux, Liver” value is on record as 2.25E+07; the “Total Flux, Lung” value stood at 2.21E+05; the “Total Flux, Spleen” value came out at 7.09E+05. Also, in the data set on IL-6, IP-10, the “Cytokine induction, IL-6” value was 29.07 and the “Cytokine induction, IP-10” value is given as 126.29.

For `CCCCCCCCCOC(=O)CCCCCCCN(CCCCCCCC(=O)OC(CCCCCCCC)CCCCCCCC)CCOC` [Compound 15, Heptadecan-9-yl 8-((2-methoxyethyl)(8-(nonyloxy)-8-oxooctyl)amino)octanoate], in data set [1], the Size stood at 111.1 nm. The EE in data set [2] was determined as 92.47%. Besides, in the data set on modified luciferase, the “Total Flux, Femur” value is reported as 5.93E+04; the “Total Flux, Liver” value is 6.23E+06; the “Total Flux, Lung” value is listed as 6.41E+04; the “Total Flux, Spleen” value stood at 9.01E+05. Also, in the data set with IL-6, IP-10, the “Cytokine induction, IL-6” value was 64.65 and the “Cytokine induction, IP-10” value was found to be 184.30.

`CCCCCCCCCOC(=O)CCCCCCCN(CCCCCCCC(=O)OC(CCCCCCCC)CCCCCCCC)CCCOC` [Compound 16, Heptadecan-9-yl 8-((3-methoxypropyl)(8-(nonyloxy)-8-oxooctyl)amino) octanoate] returned a Size in data set [1] of 119.0 nm. Moreover, the EE in data set [2] was 91.32%. For the same molecule, in the data set on modified luciferase, the “Total Flux, Femur” value came out at 2.55E+05; the “Total Flux, Liver” value turned out to be 3.17E+07; the “Total Flux, Lung” value came out at 4.18E+05; the “Total Flux, Spleen” value is given as 5.43E+06. In the data set with IL-6, IP-10, the “Cytokine induction, IL-6” value is on record as 32.01 and the “Cytokine induction, IP-10” value was determined as 206.75.

In turn, `CCCCCCCCCOC(=O)CCCCCCCN(CCCCCCCC(=O)OC(CCCCCCCC)CCCCCCCC)CCOCCN(C)C` [Compound 17, Heptadecan-9-yl 8-((2-(2-(dimethylamino)ethoxy)ethyl) (8-(nonyloxy)-8-oxooctyl)amino)octanoate] registered a Size in data set [1] of 85.2 nm. The EE in data set [2] amounted to 91.84%. In the data set with modified luciferase, the “Total Flux, Femur” value amounted to 9.55E+04; the “Total Flux, Liver” value was determined as 5.52E+05; the “Total Flux, Lung” value is 9.95E+04; the “Total Flux, Spleen” value is 5.58E+06. Also, in the data set with IL-6, IP-10, the “Cytokine induction, IL-6” value is 138.43 and the “Cytokine induction, IP-10” value was 156.41.

Regarding `CCCCCCCCCOC(=O)CCCCCCCN(CCCCCCCC(=O)OC(CCCCCCCC)CCCCCCCC)C1CCCCC1O` (stereo not shown) [Compound 22, Heptadecan-9-yl 8-((2-hydroxycyclohexyl)(8-(nonyloxy)-8-oxooctyl)amino)octanoate], the Size in data set [1] worked out at 80.2 nm. The EE in data set [2] is recorded as 96.00%. Besides, in the data set with modified luciferase, the “Total Flux, Femur” value came out at 1.16E+05; the “Total Flux, Liver” value is listed as 4.00E+07; the “Total Flux, Lung” value was determined as 4.73E+05; the “Total Flux, Spleen” value came to 1.57E+06. In addition, in the data set with IL-6, IP-10, the “Cytokine induction, IL-6” value is 90.54 and the “Cytokine induction, IP-10” value was determined as 976.50.

The molecule `CCCCCCCC/C=C\COC(=O)CCCCCN(CCO)CCCCCC(=O)OC/C=C\CCCCCCCC` [Compound 140, Di((Z)-undec-2-en-1-yl) 6,6′-((2-hydroxyethyl)azanediyl)dihexanoate] yielded a Size in data set [1] of 120.3 nm. This molecule yielded an EE in data set [2] of 89.2%. Moreover, in the data set with modified luciferase, the “Total Flux, Femur” value was 3.26E+04; the “Total Flux, Liver” value is 4.21E+05; the “Total Flux, Lung” value is on record as 2.14E+04; the “Total Flux, Spleen” value was 2.22E+05. Besides, in the data set on IL-6, IP-10, the “Cytokine induction, IL-6” value was found to be 282.82 and the “Cytokine induction, IP-10” value is 187.83.

In data set [1], `CCCCCCCCCCCOC(=O)CCCCCN(CCO)CCCCCC(=O)OCCCCCCCCCCC` [Compound 141, Diundecyl 6,6′-((2-hydroxyethyl)azanediyl)dihexanoate] showed a Size of 91.3 nm. Also, in data set [2], the EE was 94.1%. For the same molecule, in the data set with modified luciferase, the “Total Flux, Femur” value is 2.86E+04; the “Total Flux, Liver” value turned out to be 1.59E+05; the “Total Flux, Lung” value stood at 3.85E+04; the “Total Flux, Spleen” value is listed as 6.29E+04. In the data set on IL-6, IP-10, the “Cytokine induction, IL-6” value worked out at 327.15 and the “Cytokine induction, IP-10” value is given as 1072.04.

The molecule `CCCCCCCCCOC(=O)CCCCCCCN(CCO)CCCCCCCC(=O)N(CCCCCCCC)CCCCCCCC` [Compound 144, Nonyl 8-((8-(dioctylamino)-8-oxooctyl)(2-hydroxyethyl)amino)octanoate] came in with a Size in data set [1] of 135.9 nm. This molecule returned an EE in data set [2] of 90.3%. Besides, in the data set with modified luciferase, the “Total Flux, Femur” value worked out at 2.44E+06; the “Total Flux, Liver” value was found to be 3.75E+08; the “Total Flux, Lung” value worked out at 4.81E+06; the “Total Flux, Spleen” value was determined as 5.11E+07. Also, in the data set with IL-6, IP-10, the “Cytokine induction, IL-6” value came to 319.46 and the “Cytokine induction, IP-10” value was 4220.55.

For the origin of these results see US10857105B2, “Compounds and compositions for intracellular delivery of therapeutic agents” (ModernaTX, Inc., priority 2017, dated 2020).
